Assay [1] concerns the target T1, rat amylin receptor (Rattus norvegicus, UniProt P32214+Q9JJ73).
T1 construct: expressed in transfected cells; host or cells: BHK tk'ts 13 (transient, FuGENE 6), membranes
T1 sequence (P32214 25-479 isoform P32214-2 limits assumed): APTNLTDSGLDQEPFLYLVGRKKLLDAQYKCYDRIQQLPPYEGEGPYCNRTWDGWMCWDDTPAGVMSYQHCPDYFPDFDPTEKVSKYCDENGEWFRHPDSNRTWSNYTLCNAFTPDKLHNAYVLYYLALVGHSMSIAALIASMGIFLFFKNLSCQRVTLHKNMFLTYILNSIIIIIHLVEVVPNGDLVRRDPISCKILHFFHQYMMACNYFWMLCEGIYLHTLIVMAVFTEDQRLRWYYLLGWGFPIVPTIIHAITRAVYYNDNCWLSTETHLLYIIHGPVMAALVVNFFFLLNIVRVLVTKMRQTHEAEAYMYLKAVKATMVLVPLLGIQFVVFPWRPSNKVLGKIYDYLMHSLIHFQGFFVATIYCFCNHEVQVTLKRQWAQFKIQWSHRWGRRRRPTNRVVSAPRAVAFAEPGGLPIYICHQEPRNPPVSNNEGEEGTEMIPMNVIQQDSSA
T1 sequence (Q9JJ73 23-147 partner): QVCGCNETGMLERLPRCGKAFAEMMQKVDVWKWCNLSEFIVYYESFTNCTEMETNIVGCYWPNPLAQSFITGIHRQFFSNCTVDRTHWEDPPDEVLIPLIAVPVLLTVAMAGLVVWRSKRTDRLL
The assay can be described thus: Assay (VI) binding to the rat amylin receptor. The conditions noted are these: rCTR bind IC50 divided by rAmylin-R bind IC50. The protocol: Assay (VI)—Determination of the Binding to the Rat Amylin Receptor
The assay was performed as described above (Assay (V)—Determination of binding to the human amylin receptor) with the exception that we used membranes prepared from BHK tk'ts 13 cells that were transiently transfected with the rat calcitonin receptor rat RAMP 3 at an equimolar ratio […]. The BHK tk'ts 13 cells were transiently transfected with rat calcitonin receptor using FuGENE® 6 (Roche), according to the manufacturer's recommendations. Cells were grown in DMEM with 10% FBS and 1% Pen/Strep. Approximately 48 hours after transfection, the cells were harvested and membranes were prepared.

In assay [2] the target is T2, human amylin receptor (amylin 3(a) receptor: human calcitonin receptor + RAMP-3) (Homo sapiens, UniProt O60896+P30988).
T2 construct: expressed in transfected cells
T2 sequence (P30988 25-474): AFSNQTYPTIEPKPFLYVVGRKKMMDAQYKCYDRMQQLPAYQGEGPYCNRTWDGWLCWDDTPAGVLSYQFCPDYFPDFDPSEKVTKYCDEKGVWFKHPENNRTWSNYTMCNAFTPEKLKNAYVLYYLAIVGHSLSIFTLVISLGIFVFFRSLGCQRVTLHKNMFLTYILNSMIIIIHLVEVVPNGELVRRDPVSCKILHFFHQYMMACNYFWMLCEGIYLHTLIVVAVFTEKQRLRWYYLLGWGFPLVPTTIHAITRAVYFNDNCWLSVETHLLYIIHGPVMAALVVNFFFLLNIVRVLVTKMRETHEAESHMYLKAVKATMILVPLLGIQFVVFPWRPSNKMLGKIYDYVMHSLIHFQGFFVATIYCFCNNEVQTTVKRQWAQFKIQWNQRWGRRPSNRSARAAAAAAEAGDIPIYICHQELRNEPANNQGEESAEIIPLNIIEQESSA
T2 sequence (O60896 24-148 partner): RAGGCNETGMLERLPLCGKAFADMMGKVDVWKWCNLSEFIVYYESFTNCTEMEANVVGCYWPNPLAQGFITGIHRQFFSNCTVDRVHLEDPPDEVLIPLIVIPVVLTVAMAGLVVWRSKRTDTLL
The assay can be described thus: Assay (II)a functional assay, human amylin receptor (CRE luciferase, BHK cells). The class given is cell-based.

The target in assay [3] is T3, human calcitonin receptor (Homo sapiens, UniProt P30988).
T3 construct: expressed in transfected cells
T3 sequence (P30988 25-474): T2 sequence (P30988 25-474)
The assay can be described thus: Assay (II)a functional assay, human calcitonin receptor (CRE luciferase, BHK cells).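 Further: luminescence from a CRE-driven luciferase reporter, read by single photon counting after cells were exposed to test samples for 3 h at 37 °C under 5% CO2.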 The class given is cell-based. The conditions noted are these: read-out: hCTR funct. EC50.

Assay [4] concerns the target T3, human calcitonin receptor. Put plainly: Assay (VII) binding to the human calcitonin receptor (SPA, 125I-Calcitonin).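 Further: cell membranes coupled to SPA beads, competitive displacement read by scintillation counting, IC50 derived from a one-site competition fit as a measure of receptor affinity.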 The following applies: read-out: hCTR bind IC50.
Assay [5] concerns the target T4, human amylin receptor (Homo sapiens, UniProt O60896+P30988).
T4 construct: expressed in transfected cells
T4 sequence (P30988 25-474): T2 sequence (P30988 25-474)
T4 sequence (O60896 24-148 partner): T2 sequence (O60896 24-148 partner)
The assay can be described thus: Assay (V) binding to the human amylin receptor (SPA, 125I-rat amylin). The following applies: human amylin receptor membranes, SPA; read-out: hAmylin-R bind IC50. Summed up: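 IC50, taken as receptor affinity, came from one-site binding competition analysis of scintillation proximity counts. Amylin 3(a)/CRE-luc cell membranes (35 ng/μL final) were mixed with SPA beads (0.05 mg/well) in 50 mM Hepes pH 7.4 containing CaCl2, MgCl2, 0.1% OA and 0.02% Tween20.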

Where [6] appears, read: Table 6, human functional selectivity (hCTR EC50 / hAmylin-R EC50).

Numbered stars: 1 amine (or outer) side, 2 acyl side, 3 side chain; on linkers, the order of the positions; unused ones are H or OH. Bridge positions count the residues as written; N and C are the ends. Side chains are listed from the residue outwards. Peptide text beside a SMILES is read from it. * marks the point of attachment. C20 diacid = O=C(O)CCCCCCCCCCCCCCCCCCC(=O)*; γGlu = O=C(O)[C@H](CCC(=O)[*:2])N[*:1]; AEEA = NCCOCCOCC(=O)O

For `CC(C)C[C@H](NC(=O)[C@H](CCCNC(=N)N)NC(=O)[C@H](CCC(N)=O)NC(=O)[C@@H](NC(=O)[C@H](C)NC(=O)[C@@H]1CSSC[C@H](NC(=O)[C@H](CCCCN)NC(=O)CC[C@H](NC(=O)CCCCCCCCCCCCCCCCCCC(=O)O)C(=O)O)C(=O)N[C@@H](CC(N)=O)C(=O)N[C@@H]([C@@H](C)O)C(=O)N[C@@H](C)C(=O)N[C@@H]([C@@H](C)O)C(=O)N1)[C@@H](C)O)C(=O)N[C@@H](C)C(=O)N[C@@H](CCC(=O)O)C(=O)N[C@@H](Cc1ccccc1)C(=O)N[C@@H](CC(C)C)C(=O)N[C@@H](CCCNC(=N)N)C(=O)N[C@@H](Cc1c[nH]cn1)C(=O)N[C@@H](CO)C(=O)N[C@@H](CO)C(=O)N1CCC[C@H]1C(=O)N[C@@H](CC(N)=O)C(=O)N[C@@H](Cc1ccccc1)C(=O)NCC(=O)N[C@@H](C)C(=O)N1CCC[C@H]1C(=O)N[C@@H](CC(C)C)C(=O)N[C@@H](CO)C(=O)N[C@@H](CO)C(=O)N[C@H](C(=O)N[C@@H](CC(N)=O)C(=O)N[C@H](C(=O)NCC(=O)N[C@@H](CO)C(=O)N[C@@H](CC(N)=O)C(=O)N[C@H](C(=O)N[C@@H](Cc1ccc(O)cc1)C(N)=O)[C@@H](C)O)C(C)C)[C@@H](C)O` [Example 7] ({C20 diacid-γGlu}-KCNTATCATQRLAEFLRHSSPNFGAPLSSTNVGSNTY-NH2; disulfide 2-7), the “Ratio rCT/rAmylin binding” value in assay [1] (Table 7b) and in assay [1] was 42.0 each time. Besides, the “Ratio hCT/hAmylin funct.” value in assay [2] (setting [6]) was 4.5; in assay [2] (Table 6i, hCTR funct. EC50 / hAmylin-R funct. EC50), 4.5.
Take `CC[C@H](C)[C@H](NC(=O)[C@H](C)NC(=O)CNC(=O)[C@H](Cc1ccccc1)NC(=O)[C@H](CC(N)=O)NC(=O)[C@@H]1CCCN1C(=O)[C@H](CO)NC(=O)[C@H](CO)NC(=O)[C@H](Cc1c[nH]cn1)NC(=O)[C@H](CCCNC(=N)N)NC(=O)[C@H](CC(C)C)NC(=O)[C@H](Cc1ccccc1)NC(=O)[C@H](CCCNC(=N)N)NC(=O)[C@H](C)NC(=O)[C@H](CC(C)C)NC(=O)[C@H](CCCNC(=N)N)NC(=O)[C@H](CCC(N)=O)NC(=O)[C@@H](NC(=O)[C@H](C)NC(=O)[C@@H]1CSSC[C@H](NC(=O)[C@@H](N)CCCCNC(=O)COCCOCCNC(=O)CC[C@H](NC(=O)CCCCCCCCCCCCCCCCCCC(=O)O)C(=O)O)C(=O)N[C@@H](CC(N)=O)C(=O)N[C@@H]([C@@H](C)O)C(=O)N[C@@H](C)C(=O)N[C@@H]([C@@H](C)O)C(=O)N1)[C@@H](C)O)C(=O)N1CCC[C@H]1C(=O)N[C@@H](CO)C(=O)N[C@@H](CO)C(=O)N[C@H](C(=O)N[C@@H](CC(N)=O)C(=O)N[C@H](C(=O)NCC(=O)N[C@@H](CO)C(=O)N[C@@H](CC(N)=O)C(=O)N[C@H](C(=O)N[C@@H](Cc1ccc(O)cc1)C(N)=O)[C@@H](C)O)C(C)C)[C@@H](C)O` [Example 82] (H-K([AEEA-γGlu-C20 diacid])CNTATCATQRLARFLRHSSPNFGAIPSSTNVGSNTY-NH2; disulfide 2-7 (inferred); N-terminus and C-terminus assumed): the “Ratio rCT/rAmylin binding” value in assay [1] (Table 7b), in assay [1] (Table 7c) and in assay [1] was 87.0 in each case.
As to `CC[C@H](C)[C@H](NC(=O)[C@H](C)NC(=O)CNC(=O)[C@H](Cc1ccccc1)NC(=O)[C@H](CC(N)=O)NC(=O)[C@@H]1CCCN1C(=O)[C@H](CO)NC(=O)[C@H](CO)NC(=O)[C@H](Cc1c[nH]cn1)NC(=O)[C@H](CCCNC(=N)N)NC(=O)[C@H](CC(C)C)NC(=O)[C@H](Cc1ccccc1)NC(=O)[C@H](CC(=O)O)NC(=O)[C@H](C)NC(=O)[C@H](CC(C)C)NC(=O)[C@H](CCCNC(=N)N)NC(=O)[C@H](CCC(N)=O)NC(=O)[C@@H](NC(=O)[C@H](C)NC(=O)[C@@H]1CSSC[C@H](NC(=O)[C@@H](N)CCCCNC(=O)CC[C@H](NC(=O)CC[C@H](NC(=O)CCCCCCCCCCCCCCCCCCC(=O)O)C(=O)O)C(=O)O)C(=O)N[C@@H](CC(N)=O)C(=O)N[C@@H]([C@@H](C)O)C(=O)N[C@@H](C)C(=O)N[C@@H]([C@@H](C)O)C(=O)N1)[C@@H](C)O)C(=O)N1CCC[C@H]1C(=O)N[C@@H](CO)C(=O)N[C@@H](CO)C(=O)N[C@H](C(=O)N[C@@H](CC(N)=O)C(=O)N[C@H](C(=O)NCC(=O)N1CCC[C@H]1C(=O)N[C@@H](CCC(=O)O)C(=O)N[C@H](C(=O)N[C@@H](Cc1ccc(O)cc1)C(N)=O)[C@@H](C)O)C(C)C)[C@@H](C)O` [Example 122] (H-K([γGlu-γGlu-C20 diacid])CNTATCATQRLADFLRHSSPNFGAIPSSTNVGPETY-NH2; disulfide 2-7), the EC50 – broadly, the concentration that produces a half-maximal response – in assay [3] turned out to be 0.843 nM; in assay [2] (functional assay, human amylin receptor, read-out: hAmylin-R funct. EC50), 0.159 nM. The “Ratio hCT/hAmylin funct.” value in assay [2] (setting [6]) is 5.3; in assay [2] (Table 6a, human functional selectivity (hCTR EC50 / hAmylin-R EC50), at least 5) it was 5.3; in assay [2] (Table 6j, hCTR funct. EC50 / hAmylin-R funct. EC50) it was 5.3; in assay [2] (Table 6k, hCTR funct. EC50 / hAmylin-R funct. EC50), 5.3. The results for the IC50 in assay [4] and in assay [5] were 8.56 nM and 0.172 nM, respectively.
With `CC[C@H](C)[C@H](NC(=O)[C@H](C)NC(=O)CNC(=O)[C@H](Cc1ccccc1)NC(=O)[C@H](CC(N)=O)NC(=O)[C@@H]1CCCN1C(=O)[C@H](CO)NC(=O)[C@H](CO)NC(=O)[C@H](Cc1c[nH]cn1)NC(=O)[C@H](CCCNC(=N)N)NC(=O)[C@H](CC(C)C)NC(=O)[C@H](Cc1ccccc1)NC(=O)[C@H](CC(N)=O)NC(=O)[C@H](C)NC(=O)[C@H](CC(C)C)NC(=O)[C@H](CCCNC(=N)N)NC(=O)[C@H](CCC(N)=O)NC(=O)[C@@H](NC(=O)[C@H](C)NC(=O)[C@@H]1CSSC[C@H](NC(=O)[C@@H](N)CCCCNC(=O)COCCOCCNC(=O)CC[C@H](NC(=O)CCCCCCCCCCCCCCCCCCC(=O)O)C(=O)O)C(=O)N[C@@H](CC(N)=O)C(=O)N[C@@H]([C@@H](C)O)C(=O)N[C@@H](C)C(=O)N[C@@H]([C@@H](C)O)C(=O)N1)[C@@H](C)O)C(=O)N1CCC[C@H]1C(=O)N[C@@H](CO)C(=O)N[C@@H](CO)C(=O)N[C@H](C(=O)N[C@@H](CC(N)=O)C(=O)N[C@H](C(=O)NCC(=O)N[C@@H](CO)C(=O)N[C@@H](CC(N)=O)C(=O)N[C@H](C(=O)N[C@@H](Cc1ccc(O)cc1)C(N)=O)[C@@H](C)O)C(C)C)[C@@H](C)O` [Example 41], the “Ratio rCT/rAmylin binding” value in assay [1] (Table 7b), in assay [1] (Table 7c) and in assay [1] was 54.0 throughout.

The record behind these values is US8575091B1, “Amylin analogues and pharmaceutical compositions thereof” (Novo Nordisk A/S, priority 2012, dated 2013).
